Data: patent US8906825B2, “Herbicidal compositions comprising 4-amino-3-chloro-5-fluoro-6-(4-chloro-2-fluoro-3-methoxyphenyl) pyridine-2-carboxylic acid or a derivative thereof and triazolopyrimidine sulfonamides” (Dow AgroSciences LLC, priority 2012, dated 2014)

Tests used:
Format in all cases: in vivo
[1] = test system: BRAPP (Brachiaria platyphylla (Griseb.) Nash, broadleaf signalgrass); test: Postemergence foliar-applied herbicidal mixtures, direct seeded rice, greenhouse (Example I)
Source text: (§1) Seeds or nutlets of the desired test plant species were planted in a soil matrix prepared by mixing a loam or sandy loam soil (e.g., 28.6 percent silt, 18.8 percent clay, and 52.6 percent sand, with a pH of about 5.8 and an organic matter content of about 1.8 percent) and calcareous grit in an 80 to 20 ratio. The soil matrix was contained in plastic pots with a volume of 1 quart and a surface area of 83.6 square centimeters (cm^2). When required to ensure good germination and healthy plants, a fungicide treatment and/or other chemical or physical treatment was applied. The plants were grown for 8-22 days in a greenhouse with an approximate 14 h photoperiod which was maintained at about 29° C. during the day and about 26° C. during the night. Nutrients (Peters Excel® 15-5-15 5-Ca 2-Mg and iron chelate) were applied in the irrigation solution as needed and water was added on a regular basis. Supplemental lighting was provided with overhead metal halide 1000-Watt lamps as necessary. The plants were employed for testing when they reached the first through fourth true leaf stage.
(§2) Treatments consisted of the acid or esters of 4-amino-3-chloro-5-fluoro-6-(4-chloro-2-fluoro-3-methoxy-phenyl)pyridine-2-carboxylic acid (Compound A), each formulated as an SC (suspension concentrate), and various herbicidal components alone and in combination. Forms of compound A were applied on an acid equivalent basis.
(§3) Other herbicidal components were applied on an active ingredient basis and included acetolactate synthase (ALS)-inhibiting herbicides (sulfonamide chemical class) penoxsulam formulated as Grasp® SC, diclosulam formulated as Strongarm®, and cloransulam-methyl formulated as FirstRate®, flumetsulam formulated as Flumetsulam WG, and metosulam formulated as Eclipse®.
(§4) Treatment requirements were calculated based upon the rates being tested, the concentration of active ingredient or acid equivalent in the formulation, and a 12 mL application volume at a rate of 187 L/ha.
(§5) For treatments comprised of formulated compounds, measured amounts of compounds were placed individually in 25 mL glass vials and diluted in a volume of 1.25% (v/v) Agri-Dex® crop oil concentrated to obtain 12× stock solutions. […] Application solutions were prepared by adding an appropriate amount of each stock solution (e.g., 1 mL) and diluted to the appropriate final concentrations with the addition of 10 mL of an aqueous mixture of 1.25% (v/v) crop oil concentrate so that the final spray solutions contained 1.25+/−0.05% (v/v) crop oil concentrate.
(§6) All stock solutions and applications solutions were visually inspected for compound compatibility prior to application. Spray solutions were applied to the plant material with an overhead Mandel track sprayer equipped with an 8002E nozzle calibrated to deliver 187 L/ha over an application area of 0.503 m^2 at a spray height of 18 to 20 inches (46 to 50 cm) above average plant canopy height. Control plants were sprayed in the same manner with the solvent blank.
(§7) The treated plants and control plants were placed in a greenhouse as described above and watered by sub-irrigation to prevent wash-off of the test compounds. After approximately 3 weeks, the condition of the test plants as compared with that of the untreated plants was determined visually and scored on a scale of 0 to 100 percent where 0 corresponds to no injury or growth inhibition and 100 corresponds to complete kill.
(§8) Colby's equation was used to determine the herbicidal effects expected from the mixtures (Colby, S. R. 1967. Calculation of the synergistic and antagonistic response of herbicide combinations. Weeds 15:20-22.).
(§9) The following equation was used to calculate the expected activity of mixtures containing two active ingredients, A and B: Expected=A+B−(A×B/100)

[2] = test system: IPOHE (Ipomoea hederacea Jacq., ivyleaf morningglory); test: as above
Source text: as §1, §2, §3, §4, §5, §6, §7, §8, §9

[3] = test system: ISCRU (Ischaemum rugosum Salisb., saramollagrass); test: as above
Source text: as §1, §2, §3, §4, §5, §6, §7, §8, §9

[4] = test system: LEFCH (Leptochloa chinensis (L.) Nees, Chinese sprangletop); test: as above
Source text: as §1, §2, §3, §4, §5, §6, §7, §8, §9

[5] = test system: CYPDI (Cyperus difformis L., smallflower umbrella sedge); test: Postemergence field trials in direct-seeded rice, Greece and Italy (Example IV); conditions: foliar
Procedure: (§10) Multiple post-emergence field trials were conducted under field conditions in Tolima, Colombia; Thessaloniki, Greece; Ottobiano and Copiano, Italy; Greenville, Miss. and Eagle Lake, Tex., USA; and water-injected treatments were tested at Ryugasaki, Japan. Trial sites were located in commercially grown fields of direct-seeded rice (Oryza sativa) using standard herbicide small plot research methodology, except in Japan where transplanted rice was utilized for the field trial. Post-emergence trial plot size varied from 2 to 3 meter (m)×5 to 8 m (width×length) with 4 replicates per treatment. Water-injected trial plot size was 2×2 m with 3 replicates per treatment. The rice crop was grown using normal cultural practices for fertilization, seeding, watering, flooding and maintenance to ensure good growth of the crop and the weeds.
(§11) All treatments in the post-emergence field trials were applied using a backpack compressed air/gas sprayer with flat fan nozzles (80° or 110°) calibrated to apply 187 to 300 L/ha spray volume at approximately 200-400 kPa nozzle pressure. In Japan, treatments were water-injected applied where the specified amount of commercial product was mixed in 100 mls of water per replicate and applied directly into 3 cm deep water containing the crop and weeds. Treatments consisted of the benzyl ester of 4-amino-3-chloro-5-fluoro-6-(4-chloro-2-fluoro-3-methoxy-phenyl)pyridine-2-carboxylic acid (Compound A), formulated as an SC (suspension concentrate), and various herbicidal components alone and in combination.
(§12) Commercially available products of penoxsulam (Viper 20OD® (Europe), Grasp 240SC® (USA), and Wideattack 37.5SC® (Japan)) were mixed in water at appropriate formulated product rates to achieve the desired rates based on a unit area of application (hectare) to achieve the desired rates as shown. Treatments were rated at 15 to 56 days after application (DAA) as compared to the untreated control plants. Visual weed control was scored on a scale of 0 to 100 percent where 0 corresponds to no injury and 100 corresponds to complete kill.
(§13) All treatment results, both for the single product and mixtures, are an average of 3 to 4 replicates. The trial sites had naturally occurring populations of weeds. The weed spectrum included, but was not limited to, broadleaf signalgrass (Brachiaria platyphylla (Griseb.) Nash or Urochloa platyphylla (Nash) R.D. Webster, BRAPP), smallflower umbrellaplant (Cyperus difformis L., CYPDI), yellow nutsedge (Cyperus esculentus L., CYPES), multiple Echinochloa species in the same field (ECHSS) in Italy (mixed ECHSS biotypes), Amazon sprangletop (Leptochloa panicoides (J. Presl) A.S. Hitchc., LEFPA), and Japanese bulrush (Schoenoplectus juncoides (Roxb.) Palla, SCPJU).

[6] = test system: CYPES (Cyperus esculentus L., yellow nutsedge); test: as above; conditions: foliar
Procedure: as §10, §11, §12, §13

ECHSS (Echinochloa spp.) = test: as above; conditions: foliar
Procedure: as §10, §11, §12, §13

[7] = Penoxsulam 4.38 gai/ha, Table 3
[8] = Penoxsulam 8.75 gai/ha, Table 2
[9] = Penoxsulam 8.75 gai/ha, Table 3
[10] = Penoxsulam 17.5 gai/ha, Table 3
[11] = Compound A Benzyl Ester 8 gae/ha
[12] = Compound A Benzyl Ester 16 gae/ha
[13] = Compound A Benzyl Ester 17.5 gae/ha
[14] = Compound A Benzyl Ester 32 gae/ha
[15] = Compound A Benzyl Ester 4.38 gae/ha
[16] = Compound A Benzyl Ester 8.75 gae/ha
[17] = Compound A Benzyl Ester 24 gae/ha

In the case of `COc1cnc(OC)n2nc(NS(=O)(=O)c3c(OCC(F)F)cccc3C(F)(F)F)nc12` [Penoxsulam, 2-(2,2-difluoroethoxy)-N-(5,8-dimethoxy[1,2,4]triazolo[1,5-c]pyrimidin-2-yl)-6-(trifluoromethyl)benzenesulfonamide, reference compound], the “Visual Weed Control (%) - 21 DAA BRAPP Obs” value ([1]; Penoxsulam 4.38 gai/ha, Table 2) is reported as 0%, the “Visual Weed Control (%) - 21 DAA BRAPP Obs” value [1, 7] is reported as 0% and the “Visual Weed Control (%) - 21 DAA BRAPP Obs” value [1, 8] is reported as 20%. For the same compound, the “Visual Weed Control (%) - 21 DAA BRAPP Obs” value [1, 9] was 20%, the “Visual Weed Control (%) - 21 DAA BRAPP Obs” value [1, 10] was 40% and the “Visual Weed Control (%) - 27 DAA IPOHE Obs” value [2, 7] was 10%. The “Visual Weed Control (%) - 27 DAA IPOHE Obs” value ([2]; Penoxsulam 8.75 gai/ha, Table 1) was 15%, the “Visual Weed Control (%) - 27 DAA IPOHE Obs” value [2, 8] was 15% and the “Visual Weed Control (%) - 27 DAA IPOHE Obs” value [2, 9] was 15%. For the same compound, the “Visual Weed Control (%) - 27 DAA IPOHE Obs” value ([2]; Penoxsulam 17.5 gai/ha, Table 1) was 20%, the “Visual Weed Control (%) - 27 DAA IPOHE Obs” value ([2]; Penoxsulam 17.5 gai/ha, Table 2) was 20% and the “Visual Weed Control (%) - 27 DAA IPOHE Obs” value [2, 10] was 20%. The “Visual Weed Control (%) - 21 DAA ISCRU Obs” value ([3]; Penoxsulam 10 gai/ha) was 0%, the “Visual Weed Control (%) - 21 DAA ISCRU Obs” value ([3]; Penoxsulam 20 gai/ha) was 0% and the “Visual Weed Control (%) - 19 DAA LEFCH Obs” value ([4]; Penoxsulam 40 gai/ha) was 0%. For the same compound, the “Visual Weed Control (%) - 54-56 DAA CYPDI Obs” value ([5]; Penoxsulam 40 gai/ha) was 0%, the “Visual Weed Control (%) - 54-56 DAA CYPES Obs” value ([6]; Penoxsulam 40 gai/ha) was 55% and the “Visual Weed Control (%) - 54-56 DAA ECHSS Obs” value (ECHSS (Echinochloa spp.); Penoxsulam 40 gai/ha) was 50%.

For `COc1c(Cl)ccc(-c2nc(C(=O)OCc3ccccc3)c(Cl)c(N)c2F)c1F` [Compound A Benzyl Ester, benzyl ester of 4-amino-3-chloro-5-fluoro-6-(4-chloro-2-fluoro-3-methoxy-phenyl)pyridine-2-carboxylic acid], the “Visual Weed Control (%) - 22 DAA BRAPP Obs” value [1, 11] was 60%, the “Visual Weed Control (%) - 22 DAA BRAPP Obs” value [1, 12] was 60% and the “Visual Weed Control (%) - 21 DAA BRAPP Obs” value [1, 13] was 80%. The “Visual Weed Control (%) - 22 DAA BRAPP Obs” value [1, 14] was 90%, the “Visual Weed Control (%) - 27 DAA IPOHE Obs” value [2, 15] was 10% and the “Visual Weed Control (%) - 27 DAA IPOHE Obs” value [2, 16] was 10%. For the same compound, the “Visual Weed Control (%) - 27 DAA IPOHE Obs” value [2, 13] was 10%, the “Visual Weed Control (%) - 21 DAA ISCRU Obs” value [3, 11] was 20% and the “Visual Weed Control (%) - 21 DAA ISCRU Obs” value [3, 12] was 0%. For the same compound, the “Visual Weed Control (%) - 20 DAA LEFCH Obs” value [4, 15] was 10%, the “Visual Weed Control (%) - 22 DAA LEFCH Obs” value [4, 11] was 10% and the “Visual Weed Control (%) - 20 DAA LEFCH Obs” value [4, 16] was 20%. For the same compound, the “Visual Weed Control (%) - 22 DAA LEFCH Obs” value [4, 12] was 25%, the “Visual Weed Control (%) - 20 DAA LEFCH Obs” value [4, 13] was 60% and the “Visual Weed Control (%) - 22 DAA LEFCH Obs” value [4, 14] was 55%. The “Visual Weed Control (%) - 54-56 DAA CYPDI Obs” value [5, 17] was 81%, the “Visual Weed Control (%) - 54-56 DAA CYPES Obs” value [6, 17] was 15% and the “Visual Weed Control (%) - 54-56 DAA ECHSS Obs” value (ECHSS (Echinochloa spp.); [17]) was 40%.
